Laboratory results from patent EP2966448B1, “METHOD FOR THE PREDICTION OR PROGNOSIS OF THE RESPONSE OF A HUMAN SUBJECT SUFFERING FROM CANCER TO TREATMENT WITH AN ANTAGONIST OF THE NK1 RECEPTOR” (priority 2013, dated 2014).
Like-named read-outs stand apart in the source and are kept apart here.

Experiments:
Ewing Sarcoma = assay: Inhibition of primary tumor cell cultures (48 hours) vs NK1 receptor immunostaining (Example 1); type: cell-based; settings: Homo sapiens, 1 micromolar, read-out: Percentage of inhibition of cell cultures
Procedure: (§1) Cell cultures. To obtain tumor cells from human primary tumors we used the method described in De Bari et al. (De Bari et al. 2001). Briefly, small pieces of the tumors were digested into a hyaluronidase solution (Sigma-Aldrich, USA) at a concentration of 1 mg/ml during 15 minutes at 37°C, and then they were treated with 6 mg/ml of collagenase type IV (Invitrogen) during 2 hours at 37°C. Consecutively, cells were washed, and resuspended in the DMEM culture medium with high concentration of glucose (Dulbecco's Modified Eagle's Medium, Invitrogen) supplemented with 1% of antibiotics-antimycotics (Invitrogen) and with 1% of sodium pyruvate (Invitrogen), and the cells were seeded in culture slides at a concentration of 10.000 cells per square centimeter. When cells reached confluence, the adherent cells were separated using sterile trypsin at 0,5% (Invitrogen) and they were used among passages 3 and 9. For the assays shown next, tumor cells were seeded on slides at a concentration of 25.000 cells per well. A total of 6 wells containing the tumor cells were used as survival control. […] All the cultures were kept during 48 hours and later on recollected for their analysis.
(§2) Immunohistochemistry techniques. The presence of NK1 receptors was also analyzed using immunohistochemistry techniques. Briefly, a sample of each of the cultures of the cell lines used in the present invention, was centrifuged (5 minutes at 1.500 rpm) and the pellet obtained was dehydrated using increasing concentrations of ethanol and, finally, xylol. Then, said dehydrated samples were embedded in paraffin, creating a block of cells. Such paraffin blocks were cut with a microtome at 5 microns thickness, and were placed on microscope slides adequate to perform immunohistochemistry techniques. Consecutively, they were de-paraffinized by immersing them in xylol, to be finally hydrated using a solution containing decreasing concentrations of ethanol, and finally submerged them into water. […] After this, the samples were left to cool down at room temperature for 10 minutes. The endogenous peroxidase activity was blocked with 3% peroxide of hydrogen for 30 minutes at room temperature. After washing the samples with 0.05 M of Tris buffer, they were incubated with 10% non-immune pork serum at for 30 minutes at room temperature. To analyze the expression of NK1 receptors, the cellular samples were incubated in the presence of anti-NK1 antibodies (S8305, Sigma-Aldrich) diluted 1:1000, overnight at 4°C. Afterwards, the samples were washed in Tris buffer 0.05 M at room temperature. The next step was the addition of Envision System-HRP (Dako) reagents for 30 minutes at room temperature. Then, the samples were washed again in Tris buffer 0.05 M and the immunoreactivity was visualized through light microscopy with a chromogenic solution containing 3,3'-Diaminobenzidine (DAB+; Dako, USA). To differentiate the cell nuclei, they were slightly stained with hematoxylin. As negative control, it was used samples not incubated with the primary antibody anti-NK1, which was replaced by non-immune serum. All the samples were evaluated.
(§3) To value the immunostaining in each of the cases six cuts were performed to be analyzed by the immunohistochemistry technique. In each of the six cuts, it was counted cells in 20 fields (magnification 400x) using an Olympus microscope (model CX31). In each field it was counted the total number of cells and the number of cells presenting immunostaining, calculating afterwards the percentage of cells which presented immunostaining.

[1] = tested on: Lung carcinoma (non small cell type); assay: as above; type: cell-based; settings: Homo sapiens, 1 micromolar, read-out: Percentage of inhibition of cell cultures
Procedure: as §1, §2, §3

[2] = tested on: Lung carcinoma (small cell type); assay: as above; type: cell-based; settings: Homo sapiens, 1 micromolar, read-out: Percentage of inhibition of cell cultures
Procedure: as §1, §2, §3

[3] = tested on: Pancreatic carcinoma (Adenocarcinoma); assay: Inhibition of primary tumor cell cultures vs Kras mutation (Example 2); type: cell-based, human; settings: Pancreatic carcinoma (Adenocarcinoma), 100 micromolar
Procedure: (§4) Cell cultures. […] Briefly, small pieces of the tumors were digested into a hyaluronidase solution (Sigma-Aldrich, USA) at a concentration of 1 mg/ml during 15 minutes at 37°C, and then they were treated with 6 mg/ml of collagenase type IV (Invitrogen) during 2 hours at 37°C. Consecutively, cells were washed, and resuspended in the DMEM culture medium with high concentration of glucose (Dulbecco's Modified Eagle's Medium, Invitrogen) supplemented with 1% of antibiotics-antimycotics (Invitrogen) and with 1% of sodium pyruvate (Invitrogen), and the cells were seeded in culture slides at a concentration of 10.000 cells per square centimeter. When cells reached confluence, the adherent cells were separated using sterile trypsin at 0,5% (Invitrogen) and they were used among passages 3 and 9. For the assays shown next, tumor cells were seeded on slides at a concentration of 25.000 cells per well. A total of 6 wells containing the tumor cells were used as survival control. […] All the cultures were kept during 48 hours and later on recollected for their analysis.
(§5) In each case the presence or not of mutations in K-ras gene was determined.
(§6) To determine the existence of mutations in the K-ras gene DNA from cancer tumor cells was extracted from samples obtained from the different cancer tumor cells, using DNA extraction kits from Takara (Madison, WI, US) or Ambion (Huntingdon, Cambridgeshire, United Kingdom), following the manufacturer's instructions, and as it has been previously published (Di Fiore F, et al. 2007). Consecutively it was analyzed by sequencing the exon 2 of the KRAS gene, , by means of PCR amplification from previously extracted cancer tumor DNA, using the following sense primer (SEQ ID NO. 15): 5'-[sequence]-3' and anti-sense primer (SEQ ID NO. 16): 5'-[sequence]-3'. After the purification using the Qiagen extraction kit, the PCR products were sequenced using the Big Dye Terminator Kit V3.1 (Applied Biosystems, Foster City, CA, U.S.) and an ABI Prism 377 or 3100 DNA sequencer (Applied Biosystems). The presence of a heterozygous mutation in the KRAS gene in cancer tumor cells of the cultures was defined as the appearance of a mutant peak of a height of at least a third of the wild type. All the sequence analysis were executed at least twice in two independent PCR.
(§7) The antibody against NK1 receptor (Table 16) was used at 1/50 concentration. The percentages of inhibition are expressed in percentage of variation in relation to control ± standard deviation.

Hodgkin lymphoma = assay: Inhibition of primary tumor cell cultures (48 hours) vs NK1 receptor immunostaining (Example 1); type: cell-based; settings: Homo sapiens, 1 micromolar, read-out: Percentage of inhibition of cell cultures
Procedure: as §1, §2, §3

[4] = tested on: Thyroid carcinoma (folliculary type); assay: as above; type: cell-based; settings: Homo sapiens, 1 micromolar, read-out: Percentage of inhibition of cell cultures
Procedure: as §1, §2, §3

[5] = tested on: human primary tumor cells; assay: Inhibition of primary tumor cell cultures vs low or high expression of the truncated form of NK1 receptor (Example 5; tumor type per table line); type: cell-based; settings: for Percentage of inhibition of cell cultures: 100 micromolar
Procedure: as §1
The presence of the truncated form of NK1 receptor was determined and then cells were cultured in presence of several antagonists of the NK1 receptor.
In each case the presence of the truncated form of the NK1 receptor was determined.
To determine the presence of the truncated form of the gene of NK1 receptor PCR technique was performed (Polymerase Chain Reaction). The extraction of RNA, amplifications of PCR, cycle conditions and quantitative analysis were executed as it has been previously described. The specific primers were the following: For the full-length NK1R receptor (NM_001058.3; forward (SEQ ID NO: 17)-: 5'-[sequence]-3 ' and reverse- (SEQ ID NO:18): 5'-[sequence]-3') and for the truncated NK1receptor (NM_015727.2; forward (SEQ ID NO: 19): 5'-[sequence]-3 and reverse (SEQ ID NO;20): 5'-[sequence]-3').
Cases were distributed in two groups: • Group A -low expression of the truncated form of NK1 receptor- for those cases wherein the expression of the truncated form of NK1 receptor was less than double the expression of the full length form of such receptor. • Group B -high expression of the truncated form of NK1 receptor- for those cases wherein the expression of the truncated form of the NK1 receptor was higher than double the expression of the full length form of such receptor.
The percentages of inhibition are expressed in percentage of variation in relation to the control ± standard deviation.

[6] = tested on: Non Hodgkin Lymphoma T (diffuse T cell lymphoma); assay: Inhibition of primary tumor cell cultures vs Kras mutation (Example 2); type: cell-based, human; settings: Non Hodgkin Lymphoma T (diffuse T cell lymphoma), 100 micromolar
Procedure: as §1, §5, §6
The percentages of inhibition are expressed in percentage of variation in relation to control ± standard deviation.

[7] = tested on: Breast carcinoma (ductal adenocarcinoma); assay: as above; type: cell-based, human; settings: Breast carcinoma (ductal adenocarcinoma), 100 micromolar
Procedure: as §4, §5, §6, §7

[8] = tested on: Thyroid carcinoma (papillary type); assay: Inhibition of primary tumor cell cultures (48 hours) vs NK1 receptor immunostaining (Example 1); type: cell-based; settings: Homo sapiens, 1 micromolar, read-out: Percentage of inhibition of cell cultures
Procedure: as §1, §2, §3

[9] = NK1 receptor immunostaining Intensity grade 2
[10] = NK1 receptor immunostaining Intensity grade 3
[11] = NK1 receptor immunostaining Group 1 (less than 20% of the cells)
[12] = NK1 receptor immunostaining Group 2 (20-80% of the cells)
[13] = NK1 receptor immunostaining Group 3 (more than 80% of the cells)
[14] = NK1 receptor immunostaining Intensity grade 1
[15] = Cases with Kras non-mutated (wild type)

For `Cc1cc(F)ccc1[C@H]1CNCCN1C(=O)N(C)[C@H](C)c1cc(C(F)(F)F)cc(C(F)(F)F)c1` [Vestipitant], the inhibition at 1 µM (Ewing Sarcoma; [9]) was 47 ± 3%, the inhibition at 1 µM (Ewing Sarcoma; [10]) was 90 ± 6% and the inhibition at 1 µM [1, 11] was 15 ± 2%. The inhibition at 1 µM [1, 12] was 45 ± 2%, the inhibition at 1 µM [1, 13] was 93 ± 4% and the inhibition at 1 µM [1, 14] was 17 ± 2%. For the same compound, the inhibition at 1 µM [1, 9] was 49 ± 5%, the inhibition at 1 µM [1, 10] was 93 ± 5% and the inhibition at 1 µM [2, 11] was 16 ± 3%. The inhibition at 1 µM [2, 12] was 46 ± 3%, the inhibition at 1 µM [2, 13] was 93 ± 3% and the inhibition at 1 µM [2, 14] was 18 ± 3%. For the same compound, the inhibition at 1 µM [2, 9] was 45 ± 3%, the inhibition at 1 µM [2, 10] was 93 ± 3% and the “Percentage of inhibition of cell cultures” value ([3]; Cases with Kras mutated) was 24±4 percentage. The “Percentage of inhibition of cell cultures” value [3, 15] was 97±4 percentage, the inhibition at 1 µM (Hodgkin lymphoma; [11]) was 14 ± 3% and the inhibition at 1 µM (Hodgkin lymphoma; [12]) was 46 ± 3%. The inhibition at 1 µM (Hodgkin lymphoma; [13]) was 92 ± 5%, the inhibition at 1 µM (Hodgkin lymphoma; [14]) was 16 ± 4% and the inhibition at 1 µM (Hodgkin lymphoma; [9]) was 48 ± 3%. For the same compound, the inhibition at 1 µM (Hodgkin lymphoma; [10]) was 92 ± 4%, the inhibition at 1 µM [4, 11] was 16 ± 3% and the inhibition at 1 µM [4, 12] was 45 ± 3%. The inhibition at 1 µM [4, 13] was 95 ± 5%, the inhibition at 1 µM [4, 14] was 19 ± 4% and the inhibition at 1 µM [4, 9] was 46 ± 4%. The inhibition at 1 µM [4, 10] was 95 ± 3%, the “Percentage of inhibition of cell cultures” value ([5]; Glioma (astrocytoma), Cases with high expression of the truncated form of NK1 receptor (Group B)) was 94±5 percentage and the “Percentage of inhibition of cell cultures” value ([5]; Glioma (astrocytoma), Cases with low expression of the truncated form of NK1 receptor (Group A)) was 25±5 percentage. For the same compound, the “Percentage of inhibition of cell cultures” value ([5]; Lung carcinoma (non small cell lung carcinoma), Cases with high expression of the truncated form of NK1 receptor (Group B)) was 94±4 percentage, the “Percentage of inhibition of cell cultures” value ([5]; Lung carcinoma (non small cell lung carcinoma), Cases with low expression of the truncated form of NK1 receptor (Group A)) was 26±4 percentage and the “Percentage of inhibition of cell cultures” value ([5]; Melanoma (Nodular Melanoma), Cases with high expression of the truncated form of NK1 receptor (Group B)) was 96±4 percentage. For the same compound, the “Percentage of inhibition of cell cultures” value ([5]; Melanoma (Nodular Melanoma), Cases with low expression of the truncated form of NK1 receptor (Group A)) was 24±5 percentage, the “Percentage of inhibition of cell cultures” value ([5]; Non Hodgkin Lymphoma B (diffuse B cell lymphoma), Cases with high expression of the truncated form of NK1 receptor (Group B)) was 98±5 percentage and the “Percentage of inhibition of cell cultures” value ([5]; Non Hodgkin Lymphoma B (diffuse B cell lymphoma), Cases with low expression of the truncated form of NK1 receptor (Group A)) was 23±5 percentage. For the same compound, the “Percentage of inhibition of cell cultures” value ([5]; Non Hodgkin Lymphoma T (diffuse T cell lymphoma), Cases with high expression of the truncated form of NK1 receptor (Group B)) was 98±4 percentage, the “Percentage of inhibition of cell cultures” value ([5]; Non Hodgkin Lymphoma T (diffuse T cell lymphoma), Cases with low expression of the truncated form of NK1 receptor (Group A)) was 23±4 percentage and the “Percentage of inhibition of cell cultures” value ([5]; Prostate carcinoma, Cases with high expression of the truncated form of NK1 receptor (Group B)) was 95±6 percentage. The “Percentage of inhibition of cell cultures” value ([5]; Prostate carcinoma, Cases with low expression of the truncated form of NK1 receptor (Group A)) was 24±6 percentage, the “Percentage of inhibition of cell cultures” value ([5]; Thyroid carcinoma (follicular carcinoma), Cases with high expression of the truncated form of NK1 receptor (Group B)) was 95±5 percentage and the “Percentage of inhibition of cell cultures” value ([5]; Thyroid carcinoma (follicular carcinoma), Cases with low expression of the truncated form of NK1 receptor (Group A)) was 27±3 percentage. The “Percentage of inhibition of cell cultures” value ([5]; Thyroid carcinoma (papillary carcinoma), Cases with high expression of the truncated form of NK1 receptor (Group B)) was 96±6 percentage, the “Percentage of inhibition of cell cultures” value ([5]; Thyroid carcinoma (papillary carcinoma), Cases with low expression of the truncated form of NK1 receptor (Group A)) was 26±5 percentage and the “Percentage of inhibition of cell cultures” value ([5]; Undifferentiated Pleomorphic Sarcoma (malignant fibrous histiocytoma grade 3), Cases with high expression of the truncated form of NK1 receptor (Group B)) was 95±3 percentage. The “Percentage of inhibition of cell cultures” value ([5]; Undifferentiated Pleomorphic Sarcoma (malignant fibrous histiocytoma grade 3), Cases with low expression of the truncated form of NK1 receptor (Group A)) was 26±4 percentage, the “Percentage of inhibition of cell cultures” value ([5]; Urinary bladder carcinoma (transitional cell carcinoma), Cases with high expression of the truncated form of NK1 receptor (Group B)) was 94±5 percentage and the “Percentage of inhibition of cell cultures” value ([5]; Urinary bladder carcinoma (transitional cell carcinoma), Cases with low expression of the truncated form of NK1 receptor (Group A)) was 25±4 percentage. For the same compound, the “inhibition of cell proliferation” value ([5]; cancer cell cultures that show more expression of the truncated form of NK1 receptor, compared, non-peptidic antagonists 100 micromolar, antibody 1/50) was “higher inhibition”, the “Percentage of inhibition of cell cultures” value ([6]; Cases with Kras mutated) was 25±5 percentage and the “Percentage of inhibition of cell cultures” value [6, 15] was 96±5 percentage. The “Percentage of inhibition of cell cultures” value ([7]; Cases with Kras mutated) was 26±4 percentage, the “Percentage of inhibition of cell cultures” value [7, 15] was 97±5 percentage and the inhibition at 1 µM [8, 11] was 15 ± 3%. For the same compound, the inhibition at 1 µM [8, 12] was 47 ± 5%, the inhibition at 1 µM [8, 13] was 96 ± 4% and the inhibition at 1 µM [8, 14] was 16 ± 2%. The inhibition at 1 µM [8, 9] was 47 ± 5% and the inhibition at 1 µM [8, 10] was 96 ± 5%.
